Experiments:
Format in all cases: cell-based
[1] = tested on: human lung cancer A549 cells; experiment: Cell Titre Glo luminescent cell viability assay, A549; conditions: 72 h, incubated 3 days, 0.3 nM~10 μM, 0.1% DMSO
Experimental: (§1) The human lung cancer A549 cells were cultured in DMEM medium (Gibco®) supplemented with 10% fetal bovine serum (Hyclone®), and human colon cancer SW620, HT-29 cells and human prostate cancer PC-3 cells were cultured in RPMI-1640 medium (Gibco®) supplemented with 10% fetal bovine serum (Hyclone®). The cells described above were cultured in 25 cm^2 or 75 cm^2 plastic cell culture flask (Corning®) filled with 95% air and 5% CO2 at 37° C., for 2˜3 passages per week. Cells were seeded in 96 well cell culture plates (Corning®) at a density of 1×10^3 cells/well (A549), 2×10^3 cells/well (SW620 and HT-29), 3×10^3 cells/well (PC-3), 195 μL/well, and cultured at 37° C., under 95% air and 5% CO2. After 24 h, compounds of this disclosure were added. All the compounds (dissolved in 100% DMSO) were serially diluted three times by 100% DMSO starting from 10 mM. 4 μL of the solution of each concentration was added to 96 μL serum free medium, respectively, and 5 μL diluted solution by medium was added to the culture plates seeded with the cancer cells. The final concentration of DMSO in culture medium was 0.1%, and the final concentration of the compound was 0.3 nM˜10 μM. The said cells were incubated at 37° C. for 3 days. 3 Days later, the viabilities of viable cells were measured by luminescent plate reader according to the reaction of ATP and luciferase (Cell Titre Glo® Luminescent Cell Viability Assay, Promega). This method can be used to evaluate effectiveness of the compounds according to their influences on the cell growth. The dose response curves were generated by the obtained data, and IC50 values were calculated with the program Prism.

[2] = tested on: human colon cancer HT-29 cells; experiment: Cell Titre Glo luminescent cell viability assay, HT-29; conditions: 72 h, incubated 3 days, 0.3 nM~10 μM, 0.1% DMSO
Experimental: as §1

[3] = tested on: human prostate cancer PC-3 cells; experiment: Cell Titre Glo luminescent cell viability assay, PC-3; conditions: 72 h, incubated 3 days, 0.3 nM~10 μM, 0.1% DMSO
Experimental: as §1

[4] = tested on: human colon cancer SW620 cells; experiment: Cell Titre Glo luminescent cell viability assay, SW620; conditions: SW-620, 72 h, incubated 3 days, 0.3 nM~10 μM, 0.1% DMSO
Experimental: as §1

Row | SMILES | IC50 [1] [nM] | IC50 [2] [nM] | IC50 [3] [nM] | IC50 [4] [nM]
1 | CC[C@@]1(O)C(=O)OCc2c1cc1n(c2=O)Cc2cc3c(O)nccc3nc2-1 [Example 3, (S)-7-ethyl-1,7-dihydroxy-7H-pyrano[3′,4′:6,7]indolizino[1,2-b][1,6]naphthyridine-8,11(10H,13H)-dione] | < 500 | < 1000 | > 1000 | < 500
2 | CC[C@@]1(O)C(=O)OCc2c1cc1n(c2=O)Cc2cc3cc(OC)ncc3nc2-1 [Example 1, (S)-4-ethyl-4-hydroxy-9-methoxy-1H-pyrano[3′,4′:6,7]indolizino[1,2-b][1,7]naphthyridine-3,14(4H,12H)-dione] | < 100 | < 100 | < 500 | < 100
3 | CC[C@@]1(O)C(=O)OCc2c1cc1n(c2=O)Cc2c-1nc1cc(F)c(OC)cc1c2C [Example 12, (S)-4-ethyl-8-fluoro-4-hydroxy-9-methoxy-11-methyl-1H-pyrano[3′,4′:6,7]indolizino[1,2-b]quinoline-3,14(4H,12H)-dione] | < 100 | < 100 | < 100 | < 100
4 | CC[C@@]1(O)C(=O)OCc2c1cc1n(c2=O)Cc2cc3cc4c(cc3nc2-1)CCO4 [Example 6, (S)-7-ethyl-7-hydroxy-10,13-dihydro-2H-furo[2,3-g]pyrano[3′,4′:6,7]indolizino [1,2-b]quinoline-8,11(3H,7H)-dione] | > 1000 | < 1000 | > 1000 | < 500
5 | CC[C@@]1(O)C(=O)OCc2c1cc1n(c2=O)Cc2cc3c(OC)nccc3nc2-1 [Example 2, (S)-7-ethyl-7-hydroxy-1-methoxy-7H-pyrano[3′,4′:6,7]indolizino[1,2-b][1,6]naphthyridine-8,11(10H,13H)-dione] | > 1000 | < 1000 | > 1000 | < 500
6 | CC[C@@]1(O)C(=O)OCc2c1cc1n(c2=O)Cc2c-1nc1cc(F)c(OC)cc1c2N [Example 11, (S)-11-amino-4-ethyl-8-fluoro-4-hydroxy-9-methoxy-1H-pyrano[3′,4′:6,7]indolizino[1,2-b]quinoline-3,14(4H,12H)-dione] | < 100 | < 500 | < 100 | < 100
7 | CC[C@@]1(O)C(=O)OCc2c1cc1n(c2=O)Cc2cc3cc(OC)c(O)cc3nc2-1 [Example 7, (S)-4-ethyl-4,8-dihydroxy-9-methoxy-1H-pyrano[3′,4′:6,7]indolizino[1,2-b]quinoline-3,14(4H,12H)-dione] | < 100 | < 100 | < 100 | < 100
8 | CC[C@@]1(O)C(=O)OCc2c1cc1n(c2=O)Cc2cc3c(N(C)C)nccc3nc2-1 [Example 4, (S)-1-(dimethylamino)-7-ethyl-7-hydroxy-7H-pyrano[3′,4′:6,7]indolizino[1,2-b][1,6]naphthyridine-8,11(10H,13H)-dione] | < 100 | > 1000 | < 500 | < 100
9 | CC[C@@]1(O)C(=O)OCc2c1cc1n(c2=O)Cc2cc3nc(OC)ccc3nc2-1 [Example 5, (S)-7-ethyl-7-hydroxy-2-methoxy-7H-pyrano[3′,4′:6,7]indolizino[1,2-b][1,5]naphthyridine-8,11(10H,13H)-dione] | < 100 | < 500 | < 500 | < 100
10 | CC[C@@]1(O)C(=O)OCc2c1cc1n(c2=O)Cc2cc3cc(O)c(F)cc3nc2-1 [Example 8, (S)-4-ethyl-8-fluoro-4,9-dihydroxy-1H-pyrano[3′,4′:6,7]indolizino[1,2-b]quinoline-3,14(4H,12H)-dione] | < 100 | < 100 | < 100 | < 100
11 | CC[C@@]1(O)C(=O)OCc2c1cc1n(c2=O)Cc2cc3ccc(OC)c(O)c3nc2-1 [Example 10, (S)-4-ethyl-4,7-dihydroxy-8-methoxy-1H-pyrano[3′,4′:6,7]indolizino[1,2-b]quinoline-3,14(4H,12H)-dione] | < 500 | < 500 | < 500 | < 100
12 | CC[C@@]1(O)C(=O)OCc2c1cc1n(c2=O)Cc2cc3cc(OC)c(F)cc3nc2-1 [Example 9, (S)-4-ethyl-8-fluoro-4-hydroxy-9-methoxy-1H-pyrano[3′,4′:6,7]indolizino[1,2-b]quinoline-3,14(4H,12H)-dione] | < 100 | < 100 | < 100 | < 100

— patent US9458170B2, “Compound of camptothecin and preparation and use thereof” (YULIANG LI, priority 2012, dated 2016)
